Test results as given in patent publication US20240116889A1, “ANTIVIRAL COMPOUNDS AND METHODS” (priority 2019, published 2024).
Entries after “also recorded” stand apart in the source; their conditions may differ. Where two headings read alike, the source gives them in different places.

What was measured:
[1] = test system: RSV (A2 strain, ATCC VR-1540); assay: RSV production from infected HEp2 cells (immuno-detection / RT-qPCR); type: cell-based, human respiratory syncytial virus
[2] = test system: SARS-CoV-2; assay: SARS-CoV-2 replication in NHBE cells (RT-qPCR of media); type: cell-based
[3] = test system: USSR H1N1 virus; type: cell-based, influenza A virus (A/USSR/77); settings: PTECs; 0.1 μM TG for 30 min
[4] = test system: extracellular Ca^2+ influx; assay: Intracellular Ca2+ monitoring assay (Fluo-8) in NPTr cells; type: cell-based, pig; settings: non-toxic doses (CPA up to 5 μM; TG 10 min)
[5] = test system: RIG-I, OAS1 and PKR; type: cell-based, pig; settings: NPTr cells (TG also NHBE cells and myoblasts); priming before or during infection
[6] = test system: NHBE cells
[7] = test system: HEp2 cells; assay: Cell viability of HEp2 cells (CellTiter-Glo); type: cell-based, human; settings: HEp-2 cells
Protocol: Spun supernatants were collected to infect HEp2 cells for 24 h for immuno-detection of RSV. TG doses used to prime HEp2 cells were non-toxic. 30 min TG treated cells were rinsed, cultured overnight and subjected to cell viability assays (CellTiter-Glo® Luminescent Cell Viability Assay kit, Promega. Results are shown in FIG. 22.

[8] = test system: influenza A virus; settings: MDCK cells; 0.001 μM TG over 48 h of infection; cited from earlier work
[9] = test system: USSR H1N1 virus; assay: USSR H1N1 M-gene RNA in media of NPTr cells primed with stored or oil-mixed TG (RT-qPCR); type: cell-based, influenza A virus (A/USSR/77); settings: NPTr cells primed at 0.5 μM TG
[10] = test system: RSV; settings: human bronchial epithelial cell line; TG 0.1 uM for 24 h before infection; cited from earlier work
[11] = test system: USSR H1N1 virus; assay: USSR H1N1 replication in A549 cells (M-gene RNA, RT-qPCR); type: cell-based, influenza A virus (A/USSR/77)
[12] = test system: 2009 pandemic (pdm) H1N1 virus; assay: 2009 pandemic (pdm) H1N1 virus replication in Calu-3 cells (M-gene RNA, RT-qPCR); type: cell-based, influenza A virus
[13] = test system: human coronavirus OC43; type: cell-based; settings: MRC-5 cells
[14] = test system: USSR H1N1 virus; type: cell-based, influenza A virus (A/USSR/77)
[15] = test system: USSR H1N1 virus; type: cell-based, influenza A virus (A/USSR/77); remark: listed apart in the source
[16] = test system: hCoV OC43; assay: hCoV OC43 production in NHBE cells (RT-qPCR); type: cell-based, human coronavirus OC43; settings: 30 min pre-infection priming, 48 and 72 hpi
Protocol: Cells were primed with TG as indicated for 30 min, washed twice with PBS and infected with hCoV OC43 at 0.01 MOI (based on FFAs) for 3 h; after which cells were again washed twice with PBS and incubated in serum-free Promocell media (supplemented with 0.1 μg/ml TPCK trypsin). Culture media were harvested at 48 and 72 hpi for viral RNA extraction followed by one-step reverse transcription qPCR to detect the relative copy number of OC43 replicase polyprotein lab RNA. Indicated significance using Tukey's multiple comparisons test and percentage viral RNA reduction relative to corresponding DMSO control.

[17] = test system: DDIT3, HSPA5 and HSP90B1; type: cell-based, pig; settings: NPTr cells, porcine myoblasts and NHBE cells; non-toxic TG, 30 min
[18] = test system: SARS-CoV-2; assay: SARS-CoV-2 replication in Vero E6 cells (RT-qPCR of media); type: cell-based
[19] = test system: A549 cells; assay: Cell viability of A549 cells (CellTiter-Glo 2.0); type: cell-based, human; settings: RDV continuous, TG 30 min, overnight
Protocol: (A) A549 cells were primed with indicated TG, 0.3 μM RDV or DMSO control for 30 min, washed twice with PBS and infected with 0.01 MOI of CoV OC43 for 2 h, after which cells were washed again with PBS and incubated in fresh infection media (OptiMEM supplemented with 0.1 μg/ml TPCK-trypsin for TG primed cells, or fresh media in the continuous presence of RDV. At 24, 48 and 72 hpi, viral RNA extraction was performed on collected supernatants followed by one-step reverse transcription qPCR to detect the relative copy number of hCoV OC43 replicase polyprotein lab RNA, based on relative Ct method. Indicated significance relative to corresponding RDV-treated cells based on 2-way ANOVA Tukey's multiple comparisons test. (B) As in (A), A549 cells were primed continuously with RDV, or for 30 min with indicated TG or DMSO, washed, cultured overnight and subjected to cell viability assay (CellTiter-Glo 2.0 Cell Viability Assay, Promega).

[20] = test system: SARS-CoV-2; assay: SARS-CoV-2 replication in Calu-3 cells (RT-qPCR of media); type: cell-based
[21] = test system: NPTr cells
[22] = test system: PR8 H1N1 virus (A/Puerto Rico/8/1934); type: in vivo, BALB/c mice
[23] = 30 min priming at doses used for infection studies

Q: What does the source list for `C/C=C(/C)C(=O)O[C@H]1C(C)=C2[C@H]([C@@H]1OC(=O)CCCCCCC)[C@@](C)(OC(C)=O)C[C@H](OC(=O)CCC)[C@@]1(O)[C@H]2OC(=O)[C@@]1(C)O` [TG, thapsigargin]?
A: RSV replication, priming 24 h before or 24 h post-infection ([1]; HEp2 cells, 30 min TG priming, 72 h infection): strongly inhibited RSV replication; RSV production, TG priming 48 h post-infection ([1]; HEp2 cells, 30 min priming): rapidly effective in blocking virus production at 48 h post-infection; duration of sustained anti-viral effect on RSV ([1]; HEp2 cells, 30 min priming): over 48 h; Selectivity index ([1]; HEp-2 cells, 3 d infection period): 1346.499; IC50 ([1]; HEp-2 cells, RSV, 3 d infection period): 0.0668 µM; RSV progeny virus production, viral M-gene RNA ([1]; HEp-2 cells, TG 30 min priming, Riba continuously present, four days post-infection): superior to the continuous presence of ribavirin; also recorded: significantly inhibited; SARS-CoV-2 replication [2]: highly inhibitory; duration of the antiviral state after TG exposure [3]: at least 24 h; extracellular Ca^2+ influx [4]: modest Ca^2+ influx; expression of type I IFN associated genes in response to infection [5]: consistently increased the expression of type I IFN associated genes; cell viability after priming [6, 23]: no cytotoxic effect on cell viability; cell viability on continuous exposure ([6]; continuous 5 nM TG for 24 h): no reduction in cell viability; CC50 ([6]; read-out: cellular cytotoxicity CC50, 30 min priming, viability after 24 h): 33.5 µM; CC50 [7]: 90 µM; progeny influenza virus output [8]: increase progeny influenza virus output; antiviral function after mixing TG-DMSO stock with olive oil or sesame oil ([9]; 1:1 volume ratio, 24 h at room temperature): did not diminish TG antiviral function; antiviral activity after incubation of TG stock solution on its own ([9]; 24 h at RT, relative to freshly thawed TG): some reduction in antiviral activity; RSV replication by RT-PCR [10]: did not show reduction in virus replication; USSR H1N1, separate infection and co-infection with hCoV OC43 [11]: blocked; blocking of USSR H1N1 replication, comparison with RDV ([11]; A549 cells, TG 30 min priming vs continuous RDV): superior to remdesivir (RDV); pdm 2009 H1N1, separate infection and co-infection with SARS-CoV-2 [12]: blocked; hCoV OC43 replication / progeny production ([13]; TG 0.05 or 0.5 μM 30 min pre-infection, HC pre-infection or continuous): dramatic dose-responsive reduction in coronavirus replication; cell loss and cytopathic effects of infected cells ([13]; TG-primed): limited cell loss and little morphological change; progeny virus output vs DMSO control [14]: marked reduction in virus output; virus production, TG before vs 6 h after infection ([14]; myoblasts, 0.5 μM TG 30 min, […]): comparable reduction in virus production; duration of the antiviral state after TG exposure ([14]; myoblasts, 1.0 μM TG for 1 h): at least 24 h; progeny virus output vs DMSO control [15]: marked reduction in virus output; progeny virus output ([15]; NHBE cells, 5 nM TG for 30 min): dramatic reduction in progeny virus output; virus production, TG before vs 6 h after infection ([15]; NHBE cells, 0.01 μM TG 30 min, […]): comparable reduction in virus production; Selectivity index (CC50/IC50) ([15]; NHBE cells, 30 min priming, […]): 8572.89; IC50 ([15]; NHBE cells, 30 min priming, […], read-out: USSR virus inhibitory concentration IC50): 0.00391 µM; hCoV OC43 production [16]: reduced hCoV OC43 production in a dose-dependent manner; expression of ER stress associated genes [17]: consistently elevated ER stress associated genes; SARS-CoV-2 replication [18]: lack of effectiveness; cell viability [19]: no adverse effect on cell viability; SARS-CoV-2, separate infection and co-infection with pdm 2009 H1N1 [20]: blocked; SARS-CoV-2 replication, post-infection priming [20]: just as effective in virus inhibition as pre-infection TG priming; SARS-CoV-2 replication ([20]; Calu-3 cells, […], HC primed and continuously present): highly inhibitory; cell viability after priming [21, 23]: no cytotoxic effect on cell viability; CC50 ([21]; 30 min priming, viability after 24 h): 56.6 µM; cell viability of primed cells, infected or uninfected ([21]; primed once with 0.5 μM TG for 30 min, over 20 h): more viable than DMSO control cells; body weight of surviving treated mice ([22]; TG 30 ng by gavage daily): progressive weight gain from 9 dpi; PR8 virus loads in lungs vs control mice ([22]; TG 30 ng by gavage daily, […]): significantly lower; gross lung pathology ([22]; TG 30 ng by gavage daily, […]): more localised to the vicinity of virus entry site; survival of infected mice ([22]; mouse, in vivo): 40%
